Data: US8389509B2, “Substituted pyrazole compounds” (Bristol-Myers Squibb Company, priority 2009, dated 2013)

Assays:
S1P3 = S1P3 (Homo sapiens, UniProt Q99500); experiment: Method A: Receptor [35S] GTPγS Binding Assay, S1P3; assay type: biochemical; design: expressed in transfected cells; conditions: EDG3-Gal5-bla HEK293T cell membranes
Description: Method A: Receptor [35S] GTPγS Binding Assays
Compounds were loaded in a 384 FALCON® v-bottom plate (0.5 μl/well in a 3-fold dilution). Membranes prepared from S1P1/CHO cells or EDG3-Gal5-bla HEK293T cells were added to the compound plate (40 μl/well, final protein 3 μg/well) with MULTIDROP®. [^35S]GTP (1250 Ci/mmol, Perkin Elmer) was diluted in assay buffer: 20 mM HEPES, pH7.5, 10 mM MgCl2, 150 mM NaCl, 1 mM EGTA, 1 mM DTT, 10 μM GDP, 0.1% fatty acid free BSA, and 10 μg/ml Saponin to 0.4 nM. 40 μl of the [^35S] GTP solution was added to the compound plate with a final concentration of 0.2 nM. The reaction was kept at room temperature for 45 min. At the end of incubation, all the mixtures in the compound plate were transferred to a 384 well FB filter plates via GPCR robot system. The filter plate was washed with water 4 times by using the modified manifold Embla plate washer and dried at 60° C. for 45 min. 30 μA of MicroScint 20 scintillation fluid was added to each well for counting at Packard TOPCOUNT®. EC50 is defined as the agonist concentration that corresponds to 50% of the Ymax (maximal response) obtained for each individual compound tested.
Compounds of the present invention and Comparative Compound A were tested in the Receptor [^35S] GTPγS Binding Assays (Method A) and Receptor [^35S] In some instances, the value is an average of multiple experiments where N is the number of experiments conducted that provided satisfactory dose response curves. When more than one batch of an example was tested, the value presented is from a batch which allowed a comparison of GTPγS S1P1 and GTPγS S1P3 in which the most number of experiments were performed. Preferably, the same batch was examined in Method A and Method B. Data was not averaged across different batches of an example compound.

S1P1 = molecular target: T1, S1P1 (Homo sapiens, UniProt P21453); experiment: S1P1 Binding Assay (33P-S1P competition, CHO membranes); conditions: membranes of CHO cells expressing human S1P1, 33P-S1P ligand; read-out: S1P1 B IC50
T1 construct: expressed in transfected cells; host or cells: CHO cells
T1 sequence (P21453 whole entry): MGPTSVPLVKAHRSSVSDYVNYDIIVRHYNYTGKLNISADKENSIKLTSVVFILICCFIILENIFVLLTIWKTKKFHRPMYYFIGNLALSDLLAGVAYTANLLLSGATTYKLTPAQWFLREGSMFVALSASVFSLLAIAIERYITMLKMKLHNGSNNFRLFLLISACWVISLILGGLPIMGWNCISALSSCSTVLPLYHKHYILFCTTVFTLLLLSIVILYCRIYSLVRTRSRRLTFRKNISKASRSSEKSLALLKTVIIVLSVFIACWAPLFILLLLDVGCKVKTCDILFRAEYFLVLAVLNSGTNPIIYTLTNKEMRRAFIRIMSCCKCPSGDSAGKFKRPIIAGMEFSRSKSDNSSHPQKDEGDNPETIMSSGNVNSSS
Description: Membranes were prepared from CHO cells expressing human S1P1. Cells were dissociated in buffer containing 20 mM HEPES, pH 7.5, 50 mM NaCl, 2 mM EDTA and Protease Inhibitor cocktail (Roche), and disrupted on ice using the Polytron homogenizer. The homogenate was centrifuged at 20,000 rpm (48,000 g) and the supernatant was discarded. The membrane pellets were resuspended in buffer containing 50 mM HEPES, pH 7.5, 100 mM NaCl, 1 mM MgCl2, 2 mM EDTA and stored in aliquots at −80° C. after protein concentration determination.
Membranes (2 μg/well) and 0.03 nM final concentration of ^33P-S1P ligand (1 mCi/ml, American Radiolabeled Chemicals) were added to the compound plates. Binding was performed for 60 min at room temperature, terminated by collecting the membranes onto GF/B filter plates, and radioactivity was measured by TOPCOUNT®. The competition data of the test compounds over a range of concentrations was plotted as percentage inhibition of radioligand specific binding. The IC50 is defined as the concentration of competing ligand needed to reduce specific binding by 50%.
Compounds of the present invention and Comparative Compound A were tested in the S1P1 binding assay described hereinabove and the results rounded to two digits, shown in Table A were obtained. In some instances, the value is an average of multiple experiments where N is the number of experiments conducted that provided satisfactory dose response curves. When more than one batch of an example was tested, the value presented is from the batch which allowed a comparison of GTPγS S1P1 and GTPγS S1P3 in Method A (Data shown in Table B). Data was not averaged across different batches of an example compound.

circulating lymphocytes = experiment: Blood Lymphocyte Reduction Assay (BLR) in mice; assay type: in vivo, BALB/c mice; conditions: oral
Description: Blood Lymphocyte Reduction Assay (BLR) in Rodents
Lewis rats or BALB/c mice were dosed orally with test article (as a solution or suspension in the vehicle) or vehicle alone (polyethylene glycol 300, “PEG300”). Blood was drawn at 4 hr and 24 h by retro-orbital bleeding. Blood lymphocyte counts were determined on an ADVIA 120 Hematology Analyzer (Siemens Healthcare Diagnostics). The results were measured as a reduction in the percentage of circulating lymphocytes as compared to the vehicle treated group at the 4 hr and 24 hr measurement. The results represent the average results of all animals within each treatment group (n=3-4).
Compounds of the present invention were tested in the Blood Lymphocyte Reduction assay (BLR) described hereinabove and the results are shown in Table D for rats and Table E for mice.

C57BL/6 mice = experiment: Mouse Experimental Autoimmune Encephalomyelitis Assay (EAE); assay type: in vivo; conditions: for Clinical Score on Day 24, Mean: vehicle mean 2.63
Description: Mouse Experimental Autoimmune Encephalomyelitis Assay (EAE)
Mice (C57BL/6 female, 6-8 weeks of age, Charles River, n=10-12 treatment group) were immunized subcutaneously with 150 μg MOG35-55 emulsified 1:1 with […] Freund's adjuvant (sigma) supplemented with 150 μg Mycobacterium tuberculosis H37RA (Difco Laboratories). 400 ng of pertussis toxin (CalBiochem) was injected intraperitoneally on the day of immunization and two days later. Animals were dosed once daily with the test article (as a solution or suspension in the vehicle) or vehicle alone (polyethylene glycol 300, “PEG300”) starting from 1 day after immunization. Clinical scoring and body weight were taken 3 times per week until the end of the study on day 24. Clinical scoring system: 0.5: partial tail weakness; 1: limp tail or waddling gait with tail tonicity; 1.5: waddling gait with partial tail weakness; 2: waddling gait with limp tail (ataxia); 2.5: ataxia with partial limb paralysis; 3: full paralysis of one limb; 3.5: full paralysis of one limbs with partial paralysis of a second limb; 4: full paralysis of two limbs; 4.5: moribund; 5: death. A compound of the present invention was tested in the Mouse Experimental Autoimmune Encephalomyelitis assay described hereinabove and the results are shown in Table H.

Chain of S1P3 (Q99500 whole entry): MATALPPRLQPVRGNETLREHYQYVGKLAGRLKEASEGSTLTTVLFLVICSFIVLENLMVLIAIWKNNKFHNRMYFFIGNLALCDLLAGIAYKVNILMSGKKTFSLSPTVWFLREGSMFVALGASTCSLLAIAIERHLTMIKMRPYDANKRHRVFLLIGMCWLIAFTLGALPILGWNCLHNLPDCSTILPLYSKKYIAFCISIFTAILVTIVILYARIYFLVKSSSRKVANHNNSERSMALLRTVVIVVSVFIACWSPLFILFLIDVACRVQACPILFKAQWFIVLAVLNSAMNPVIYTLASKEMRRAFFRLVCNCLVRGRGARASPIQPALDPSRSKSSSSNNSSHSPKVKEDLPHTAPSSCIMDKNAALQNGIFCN

O=C(O)C1CN(Cc2ccc(-c3noc(-c4cnn(-c5ccccn5)c4C(F)(F)F)n3)cc2)C1 [Example 1, 1-(4-(5-(1-(Pyridin-2-yl)-5-(trifluoromethyl)-1H-pyrazol-4-yl)-1,2,4-oxadiazol-3-yl)benzyl)azetidine-3-carboxylic acid]
EC50 (S1P3): 6.7 µM | IC50 (S1P1): 0.4 nM | % reduction in lymphocytes at 4 hr. (circulating lymphocytes; 0.3 mg/kg): 74% | % reduction in lymphocytes at 24 hr. (circulating lymphocytes; 0.3 mg/kg): 30% | % reduction in lymphocytes at 4 hr. (circulating lymphocytes; 1.0 mg/kg): 85% | % reduction in lymphocytes at 24 hr. (circulating lymphocytes; 1.0 mg/kg): 68% | % reduction in lymphocytes at 4 hr. (circulating lymphocytes; 3.0 mg/kg): 85% | % reduction in lymphocytes at 24 hr. (circulating lymphocytes; 3.0 mg/kg): 76% | % reduction in lymphocytes at 4 hr. (circulating lymphocytes; 10.0 mg/kg): 84% | % reduction in lymphocytes at 24 hr. (circulating lymphocytes; 10.0 mg/kg): 88% | Clinical Score on Day 24, Mean (C57BL/6 mice; 1.0 mg/kg once daily): 0.32 | Clinical Score on Day 24, Mean (C57BL/6 mice; 3.0 mg/kg once daily): 0.77 | Clinical Score on Day 24, Mean (C57BL/6 mice; 10.0 mg/kg once daily): 0.30 | disease progression as determined by the clinical scores (C57BL/6 mice; C57Bl/6 mice, prophylactic oral dosing): inhibits disease progression
